Experimental data from patent US20240082194A1, “PREVENTIVE OR THERAPEUTIC AGENT FOR INFLAMMATORY DISORDERS AND/OR PAIN DISORDERS” (Kyowa Pharma Chemical Co., Ltd., priority 2021, published 2024).
“And” between values parts separate entries of the source, which are not always exact repeats. Equal values may be shown once.

Test system: adjuvant arthritis model rats
Assay: Rat adjuvant arthritis model: left hind limb (non-sensitized limb) volume
Assay type: in vivo, rat (male LEW rats)
Settings: for Left hind limb volume, Mean: group mean n=5; for Left hind limb volume: individual animals
Protocol: Required amounts of GSSSG and indomethacin were weighed with an electronic balance, each ground well with a mortar, added to a solvent (0.5% methyl cellulose (MC) suspension), and suspended. The administration solution of GSSSG alone was prepared to have a concentration of 21.2 mg/mL (20 mg/mL on an anhydrous basis), and the administration solution of indomethacin alone was prepared to have a concentration of 0.06 mg/mL or 0.6 mg/mL. A combined administration solution was prepared by mixing a suspension prepared with GSSSG at 42.4 mg/mL (40 mg/mL on an anhydrous basis) with 0.12 mg/mL and 1.2 mg/mL indomethacin suspensions in equal amounts. The administration solution was prepared for 2 weeks at a time and stored under refrigeration and light shielding conditions until administration.
An appropriate amount of killed Mycobacterium tuberculosis (M. Tuberculosis H37Ra; BD) was ground in a mortar, and liquid paraffin was added thereto to prepare an adjuvant to 5 mg/mL. As experimental animals, 6-week-old male LEW rats were used. General condition observation and weight measurement were carried out upon arrival, and the presence or absence of abnormalities was confirmed.
The acclimation period was set to 7 days, and the general condition was observed once a day. On the last day of the acclimation period, left hind limb volume and body weight were measured to confirm that there were no abnormalities in body weight and general condition, and the animals were then used for a test.
On the last day of the acclimation period, the rats were sensitized with 50 μL of the prepared adjuvant under isoflurane inhalation anesthesia under the skin of the right hind limb plantar. In grouping, the rats were assigned to 6 groups (n=5) to ensure equal left hind limb volume and body weight.
The administration solution of indomethacin alone, the administration solution of GSSSG alone, and the combined administration solution were forcibly orally administered at a volume of 5 mL/kg for 14 days from the day of grouping. The dose was calculated based on the most recent body weight. The volume of the left hind limb (non-sensitized limb) was measured using a rat hind limb plantar edema volume measurement device (TK-101P; Natsume Seisakusho Co., Ltd.) on the last day of the acclimation period, the day of grouping, and twice a week after the day of grouping. The measurement was performed 5 times per rat per day, and an average value of 3 times excluding the highest and lowest values was taken as the volume.

[1] = Indomethacin 0.3 mg/kg/day oral, day 0 (before sensitization)
[2] = Indomethacin 0.3 mg/kg/day oral, day 9 (day of grouping, start of dosing)
[3] = Indomethacin 0.3 mg/kg/day oral, day 13
[4] = Indomethacin 0.3 mg/kg/day oral, day 16
[5] = Indomethacin 0.3 mg/kg/day oral, day 20
[6] = Indomethacin 0.3 mg/kg/day oral, day 23
[7] = Indomethacin 3 mg/kg/day oral, day 0 (before sensitization)
[8] = Indomethacin 3 mg/kg/day oral, day 9 (day of grouping, start of dosing)
[9] = Indomethacin 3 mg/kg/day oral, day 13
[10] = Indomethacin 3 mg/kg/day oral, day 16
[11] = Indomethacin 3 mg/kg/day oral, day 20
[12] = Indomethacin 3 mg/kg/day oral, day 23
[13] = GSSSG 100 mg/kg/day oral, day 0 (before sensitization)
[14] = GSSSG 100 mg/kg/day oral, day 9 (day of grouping, start of dosing)
[15] = GSSSG 100 mg/kg/day oral, day 13
[16] = GSSSG 100 mg/kg/day oral, day 16
[17] = GSSSG 100 mg/kg/day oral, day 20
[18] = GSSSG 100 mg/kg/day oral, day 23

## COc1ccc2c(c1)c(CC(=O)O)c(C)n2C(=O)c1ccc(Cl)cc1 [Indomethacin, indomethacin]
[1]
  Left hind limb volume, Mean: 1.32 mL
  Left hind limb volume: 1.39 mL and 1.24 mL and 1.37 mL and 1.30 mL and 1.29 mL
[2]
  Left hind limb volume, Mean: 1.63 mL
  Left hind limb volume: 1.47 mL and 1.41 mL and 1.74 mL (2×) and 1.79 mL
[3]
  Left hind limb volume, Mean: 1.90 mL
  Left hind limb volume: 1.78 mL and 1.59 mL and 2.17 mL and 1.98 mL and 1.99 mL
[4]
  Left hind limb volume, Mean: 1.88 mL
  Left hind limb volume: 1.74 mL and 1.62 mL and 2.19 mL and 1.95 mL and 1.91 mL
[5]
  Left hind limb volume, Mean: 1.92 mL
  Left hind limb volume: 1.71 mL and 1.60 mL and 2.09 mL and 2.06 mL and 2.12 mL
[6]
  Left hind limb volume, Mean: 1.94 mL
  Left hind limb volume: 1.69 mL and 1.65 mL and 1.98 mL and 2.20 mL and 2.18 mL
[7]
  Left hind limb volume, Mean: 1.33 mL
  Left hind limb volume: 1.17 mL and 1.40 mL and 1.37 mL and 1.32 mL and 1.38 mL
[8]
  Left hind limb volume, Mean: 1.52 mL
  Left hind limb volume: 1.36 mL and 1.49 mL (2×) and 1.71 mL and 1.55 mL
[9]
  Left hind limb volume, Mean: 1.63 mL
  Left hind limb volume: 1.39 mL and 1.68 mL (2×) and 1.69 mL (2×)
[10]
  Left hind limb volume, Mean: 1.55 mL
  Left hind limb volume: 1.36 mL and 1.60 mL (2×) and 1.58 mL and 1.62 mL
[11]
  Left hind limb volume, Mean: 1.52 mL
  Left hind limb volume: 1.32 mL and 1.60 mL and 1.61 mL and 1.51 mL and 1.59 mL
[12]
  Left hind limb volume, Mean: 1.54 mL
  Left hind limb volume: 1.33 mL and 1.56 mL and 1.61 mL and 1.58 mL and 1.62 mL

## N[C@@H](CCC(=O)N[C@@H](CSSSC[C@H](NC(=O)CC[C@H](N)C(=O)O)C(=O)NCC(=O)O)C(=O)NCC(=O)O)C(=O)O [GSSSG, glutathione trisulfide]
[13]
  Left hind limb volume, Mean: 1.31 mL
  Left hind limb volume: 1.21 mL and 1.39 mL (2×) and 1.29 mL (2×)
[14]
  Left hind limb volume, Mean: 1.49 mL
  Left hind limb volume: 1.29 mL and 1.52 mL and 1.58 mL (2×) and 1.51 mL
[15]
  Left hind limb volume, Mean: 1.99 mL
  Left hind limb volume: 1.45 mL and 2.35 mL and 2.08 mL and 2.06 mL and 2.00 mL
[16]
  Left hind limb volume, Mean: 2.26 mL
  Left hind limb volume: 1.41 mL and 2.64 mL (2×) and 2.28 mL and 2.35 mL
[17]
  Left hind limb volume, Mean: 2.39 mL
  Left hind limb volume: 1.72 mL and 2.82 mL and 2.58 mL and 2.53 mL and 2.31 mL
[18]
  Left hind limb volume, Mean: 2.54 mL
  Left hind limb volume: 1.67 mL and 3.22 mL and 2.77 mL and 2.69 mL and 2.34 mL
GSSSG alone administration group (100 mg/kg oral, 14 days)
  anti-inflammatory effect: no anti-inflammatory effect was observed
